Read-outs that look alike come from different tables or passages of the source.
Key:
Assay type in all cases: cell-based
[1] = target: T1, recombinant human dopamine transporter (Homo sapiens, UniProt Q01959); experiment: Dopamine functional uptake assay for human reuptake transporter; details: [3H]dopamine uptake, CHO-K1 or HEK293 cells expressing human dopamine transporter; read-out: Human IC50 (nM) DAT
T1 construct: expressed in transfected cells; host or cells: CHO-K1 or HEK293
Protocol: Dopamine Functional Uptake Assay for Human Reuptake Transporter
Either CHO-K1 or HEK293 cells expressing human recombinant dopamine transporter were plated before the assay. Test compound and/or vehicle was preincubated with cells in modified HEPES buffer pH 7.1 or pH 7.4 for 20 minutes at 18 to 25° C. and 50 nM [^3H]dopamine was then added for an additional timed incubation period (10 to 30 minutes). After washing the cells to remove [^3H]dopamine not internalized, the cells were lysed, and the amount of tritium in the lysate was measured using a liquid scintillation counter to determine [^3H]dopamine uptake. Non-specific binding of tritium was measured in a control reaction containing 10 μM nomifensine, and was subtracted from the counts for assays to correct for non-specific binding of tritium. Reduction of [^3H]dopamine uptake by 50 percent or more (≧50%) relative to an uninhibited control reaction indicates significant inhibitory activity.

[2] = target: T2, recombinant human serotonin transporter (Homo sapiens, UniProt P31645); experiment: Serotonin functional uptake assay for human reuptake transporter; details: [3H]serotonin uptake, HEK-293 cells expressing human serotonin transporter; read-out: Human IC50 (nM) SERT
T2 construct: expressed in transfected cells; host or cells: HEK-293
T2 sequence (P31645 whole entry): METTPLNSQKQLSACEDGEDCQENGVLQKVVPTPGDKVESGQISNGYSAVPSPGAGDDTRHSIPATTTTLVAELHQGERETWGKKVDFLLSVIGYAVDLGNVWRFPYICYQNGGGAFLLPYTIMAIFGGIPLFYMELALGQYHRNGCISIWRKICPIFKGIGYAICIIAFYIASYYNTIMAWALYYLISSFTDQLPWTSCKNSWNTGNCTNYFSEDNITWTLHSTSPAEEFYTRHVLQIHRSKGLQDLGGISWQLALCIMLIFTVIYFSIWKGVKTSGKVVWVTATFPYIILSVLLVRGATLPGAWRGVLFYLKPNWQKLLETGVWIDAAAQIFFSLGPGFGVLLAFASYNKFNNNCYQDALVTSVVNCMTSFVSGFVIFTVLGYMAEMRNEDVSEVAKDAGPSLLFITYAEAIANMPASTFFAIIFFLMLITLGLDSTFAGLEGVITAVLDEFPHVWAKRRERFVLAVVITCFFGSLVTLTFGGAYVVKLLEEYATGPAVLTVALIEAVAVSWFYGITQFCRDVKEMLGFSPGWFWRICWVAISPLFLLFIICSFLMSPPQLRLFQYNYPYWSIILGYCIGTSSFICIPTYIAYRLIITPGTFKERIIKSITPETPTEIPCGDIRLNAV
Protocol: Serotonin Functional Uptake Assay for Human Reuptake Transporter
HEK-293 cells expressing human serotonin transporter were plated before the assay. […] Cells with internalized [^3H]serotonin were washed and the amount of tritium taken into cells is counted using a liquid scintillation counter to determine [^3H]serotonin uptake.

[3] = target: T3, recombinant human norepinephrine transporter (Homo sapiens, UniProt P23975); experiment: Norepinephrine functional uptake assay for human reuptake transporter; details: [3H]norepinephrine uptake, HEK293 or MDCK cells expressing human norepinephrine transporter
T3 construct: expressed in transfected cells; host or cells: HEK293 or MDCK
T3 sequence (P23975 whole entry): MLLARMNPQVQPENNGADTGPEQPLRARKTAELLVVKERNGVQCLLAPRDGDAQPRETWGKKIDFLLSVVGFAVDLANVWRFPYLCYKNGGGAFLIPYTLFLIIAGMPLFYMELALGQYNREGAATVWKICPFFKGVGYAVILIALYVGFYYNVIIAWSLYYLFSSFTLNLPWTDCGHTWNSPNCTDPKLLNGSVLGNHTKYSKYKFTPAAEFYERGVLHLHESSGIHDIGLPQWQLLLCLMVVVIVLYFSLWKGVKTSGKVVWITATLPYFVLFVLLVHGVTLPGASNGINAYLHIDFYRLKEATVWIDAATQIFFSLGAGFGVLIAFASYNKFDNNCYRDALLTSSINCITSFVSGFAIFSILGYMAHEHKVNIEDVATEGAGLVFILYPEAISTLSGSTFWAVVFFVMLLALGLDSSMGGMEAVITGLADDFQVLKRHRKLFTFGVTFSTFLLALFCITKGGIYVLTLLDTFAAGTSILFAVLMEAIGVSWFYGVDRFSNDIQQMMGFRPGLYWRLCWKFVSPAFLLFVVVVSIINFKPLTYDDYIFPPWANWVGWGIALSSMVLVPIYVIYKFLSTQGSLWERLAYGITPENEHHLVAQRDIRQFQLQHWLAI
Protocol: Norepinephrine Functional Uptake Assay for Human Reuptake Transporter
The cells were plated before the assay. Test compound and/or vehicle was preincubated with cells in modified HEPES buffer pH 7.1 or pH 7.4 for 20 minutes at 18 to 25° C. . […] After the cells were washed to remove [^3H]norepinephrine not internalized, the cells were lysed, and the amount of tritium in the cell lysate was measured using a liquid scintillation counter to determine [^3H]norepinephrine uptake. Non-specific binding of tritium was measured in a control reaction containing 10 μM imipramine (or 10 μM nisoxetine), and was subtracted from the counts for assays to correct for non-specific binding of tritium. Reduction of [^3H]norepinephrine uptake by 50 percent or more (≧50%) relative to an uninhibited control reaction indicates significant inhibitory activity.

T1 sequence (Q01959 whole entry): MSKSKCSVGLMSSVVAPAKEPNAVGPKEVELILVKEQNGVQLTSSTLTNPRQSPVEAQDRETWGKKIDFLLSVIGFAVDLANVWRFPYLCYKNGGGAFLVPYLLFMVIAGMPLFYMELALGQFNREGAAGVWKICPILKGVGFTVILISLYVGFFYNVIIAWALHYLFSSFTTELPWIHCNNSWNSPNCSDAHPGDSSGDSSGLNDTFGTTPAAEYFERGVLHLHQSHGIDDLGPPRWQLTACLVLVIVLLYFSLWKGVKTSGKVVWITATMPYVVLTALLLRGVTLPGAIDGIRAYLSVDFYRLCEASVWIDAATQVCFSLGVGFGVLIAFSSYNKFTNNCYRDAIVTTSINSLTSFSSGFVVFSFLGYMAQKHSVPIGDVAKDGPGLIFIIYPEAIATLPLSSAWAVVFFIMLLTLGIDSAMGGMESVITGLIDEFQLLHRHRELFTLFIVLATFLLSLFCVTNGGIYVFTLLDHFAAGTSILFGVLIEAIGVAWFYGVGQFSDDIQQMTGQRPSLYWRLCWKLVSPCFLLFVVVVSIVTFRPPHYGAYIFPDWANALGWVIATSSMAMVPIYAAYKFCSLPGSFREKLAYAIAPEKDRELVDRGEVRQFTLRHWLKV

| SMILES | IC50 [1] [nM] | IC50 [2] [nM] | IC50 ([3]; read-out: Human IC50 (nM) NET) [nM] | IC50 ([3]; Human IC50 (nM) NET) [nM] |
| --- | --- | --- | --- | --- |
| CN[C@@H]1Cc2cccc(OC)c2[C@H](c2ccc(Cl)c(Cl)c2)C1 (single isomer, unassigned) [Compound 32b.1, 4-(3,4-dichlorophenyl)-5-methoxy-N-methyl-1,2,3,4-tetrahydronaphthalen-2-amine] | 83 | 359 | 2330 | – |
| CN[C@@H]1Cc2cccc(OC)c2[C@H](c2ccc(Cl)c(Cl)c2)C1 (single isomer, unassigned) [Compound 32b.2, 4-(3,4-dichlorophenyl)-5-methoxy-N-methyl-1,2,3,4-tetrahydronaphthalen-2-amine] | 496 | 307 | 2320 | – |
| CN[C@H]1Cc2cc(OC)ccc2[C@@H](c2ccc(Cl)c(Cl)c2)C1 (single isomer, unassigned) [Compound 32c.1, 4-(3,4-dichlorophenyl)-7-methoxy-N-methyl-1,2,3,4-tetrahydronaphthalen-2-amine] | 18 | 68 | 571 | – |
| CN[C@H]1Cc2cc(OC)ccc2[C@@H](c2ccc(Cl)c(Cl)c2)C1 (single isomer, unassigned) [Compound 32c.2, 4-(3,4-dichlorophenyl)-7-methoxy-N-methyl-1,2,3,4-tetrahydronaphthalen-2-amine] | 109 | 29 | 112 | – |
| CN[C@H]1Cc2cc(OC)ccc2[C@@H](c2ccc(Cl)c(Cl)c2)C1 (single isomer, unassigned) [Compound 32c.4, 4-(3,4-dichlorophenyl)-7-methoxy-N-methyl-1,2,3,4-tetrahydronaphthalen-2-amine] | 78 | 209 | 111 | – |
| COc1ccc2c(c1)C(c1ccc(Cl)c(Cl)c1)CC(N(C)C)C2 (single isomer, unassigned) [Compound 33a.1, 4-(3,4-dichlorophenyl)-6-methoxy-N,N-dimethyl-2,3,4-tetrahydronaphthalen-2-amine] | 781 | 475 | 2310 | – |
| COc1ccc2c(c1)C(c1ccc(Cl)c(Cl)c1)CC(N(C)C)C2 (single isomer, unassigned) [Compound 33a.2, 4-(3,4-dichlorophenyl)-6-methoxy-N,N-dimethyl-2,3,4-tetrahydronaphthalen-2-amine] | 396 | 156 | 2260 | – |
| COc1ccc2c(c1)C(c1ccc(Cl)c(Cl)c1)CC(N(C)C)C2 (single isomer, unassigned) [Compound 33a.3, 4-(3,4-dichlorophenyl)-6-methoxy-N,N-dimethyl-2,3,4-tetrahydronaphthalen-2-amine] | 2290 | 207 | 1170 | – |
| COc1ccc2c(c1)C(c1ccc(Cl)c(Cl)c1)CC(N(C)C)C2 (single isomer, unassigned) [Compound 33a.4, 4-(3,4-dichlorophenyl)-6-methoxy-N,N-dimethyl-2,3,4-tetrahydronaphthalen-2-amine] | 1410 | 808 | 1700 | – |
| COc1ccc2c(c1)C[C@H](N(C)C)C[C@@H]2c1ccc(Cl)c(Cl)c1 (single isomer, unassigned) [Compound 33c.1, 4-(3,4-dichlorophenyl)-7-methoxy-N,N-dimethyl-1,2,3,4-tetrahydronaphthalen-2-amine] | 194 | 24 | 943 | – |
| COc1ccc2c(c1)C[C@H](N(C)C)C[C@@H]2c1ccc(Cl)c(Cl)c1 (single isomer, unassigned) [Compound 33c.2, 4-(3,4-dichlorophenyl)-7-methoxy-N,N-dimethyl-1,2,3,4-tetrahydronaphthalen-2-amine] | 67 | 8 | 684 | – |
| COc1ccc2c(c1)C[C@H](N(C)C)C[C@@H]2c1ccc(Cl)c(Cl)c1 (single isomer, unassigned) [Compound 33c.3, 4-(3,4-dichlorophenyl)-7-methoxy-N,N-dimethyl-1,2,3,4-tetrahydronaphthalen-2-amine] | 83 | 616 | 906 | – |
| COc1ccc2c(c1)C[C@H](N(C)C)C[C@@H]2c1ccc(Cl)c(Cl)c1 (single isomer, unassigned) [Compound 33c.4, 4-(3,4-dichlorophenyl)-7-methoxy-N,N-dimethyl-1,2,3,4-tetrahydronaphthalen-2-amine] | 224 | 92 | 1900 | – |
| CN(C)[C@H]1CCc2ccccc2[C@H]1c1ccc(Cl)c(Cl)c1 (single isomer, unassigned) [Compound 37a, 1-(3,4-dichlorophenyl)-N,N-dimethyl-1,2,3,4-tetrahydronaphthalen-2-amine] | 235 | 355 | 2380 | – |
| CN(C)[C@H]1CCc2ccccc2[C@H]1c1ccc(Cl)c(Cl)c1 (single isomer, unassigned) [Compound 37b, 1-(3,4-dichlorophenyl)-N,N-dimethyl-1,2,3,4-tetrahydronaphthalen-2-amine] | 106 | 742 | 499 | – |
| CN(C)[C@H]1CCc2ccccc2[C@H]1c1ccc(Cl)c(Cl)c1 (single isomer, unassigned) [Compound 37c, 1-(3,4-dichlorophenyl)-N,N-dimethyl-1,2,3,4-tetrahydronaphthalen-2-amine] | 284 | 70 | 1190 | – |
| CN(C)[C@H]1CCc2ccccc2[C@H]1c1ccc(Cl)c(Cl)c1 (single isomer, unassigned) [Compound 37d, 1-(3,4-dichlorophenyl)-N,N-dimethyl-1,2,3,4-tetrahydronaphthalen-2-amine] | 36 | 3150 | 1010 | – |
| CNC1c2ccccc2CCC1c1ccc(Cl)c(Cl)c1 (single isomer, unassigned) [Compound 40a, 2-(3,4-dichlorophenyl)-N-methyl-1,2,3,4-tetrahydronaphthalen-l-amine] | 3410 | 2470 | > 10000 | – |
| CNC1c2ccccc2CCC1c1ccc(Cl)c(Cl)c1 (single isomer, unassigned) [Compound 40b, 2-(3,4-dichlorophenyl)-N-methyl-1,2,3,4-tetrahydronaphthalen-l-amine] | 1790 | 7720 | > 10000 | – |
| CN(C)[C@@H]1c2ccccc2CC[C@@H]1c1ccc(Cl)c(Cl)c1 (single isomer, unassigned) [Compound 41a, cis-2-(3,4-dichlorophenyl)-N,N-dimethyl-1,2,3,4-tetrahydronaphthalen-1-amine] | 2280 | 3170 | > 10000 | – |
| CN(C)[C@@H]1c2ccccc2CC[C@@H]1c1ccc(Cl)c(Cl)c1 (single isomer, unassigned) [Compound 41b, cis-2-(3,4-dichlorophenyl)-N,N-dimethyl-1,2,3,4-tetrahydronaphthalen-1-amine] | 1120 | 9740 | > 10000 | – |
| CC(N)C1=Cc2ccccc2[C@H](c2ccc(Cl)c(Cl)c2)C1 (single isomer, unassigned) [Compound 45] | 174 | 876 | – | 53 |
| CC(N)C1=Cc2ccccc2[C@H](c2ccc(Cl)c(Cl)c2)C1 (single isomer, unassigned) [Compound 46] | 1660 | 50 | – | 580 |
| CNC(C)C1=Cc2ccccc2[C@H](c2ccc(Cl)c(Cl)c2)C1 (single isomer, unassigned) [Compound 47] | 1140 | 44 | 1180 | – |
| CC(N)[C@@H]1Cc2ccccc2[C@H](c2ccc(Cl)c(Cl)c2)C1 (single isomer, unassigned) [Compound 52] | 622 | 8 | – | 122 |
| CC([C@@H]1Cc2ccccc2[C@H](c2ccc(Cl)c(Cl)c2)C1)N(C)C (single isomer, unassigned) [Compound 53] | 495 | 58 | 399 | – |
| CC([C@@H]1Cc2ccccc2[C@H](c2ccc(Cl)c(Cl)c2)C1)N(C)C (single isomer, unassigned) [Compound 54] | 1900 | 815 | 1700 | – |
| CC1C[C@@H](c2ccc(Cl)c(Cl)c2)c2ccccc2/C1=N\O (single isomer, unassigned) [Compound 57] | 997 | 3180 | 3890 | – |
